Reference: PubChem BioAssay (NCI)
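1) Cells in 96-well plates. 2) Compound, 48 h, 5 concentrations. 3) Linear interpolation between surrounding doses. 4) Unreached endpoint = highest concentration. GI50: concentration for 50% inhibition of growth. At the TGI there is no net growth.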

How the values were obtained:
Experiment in all cases: NCI-60 cell line screen, 48 h
HS 578T breast = tested on: HS 578T breast
HL-60(TB) leukemia = tested on: HL-60(TB) leukemia
NCI-H522 lung = tested on: NCI-H522 lung
IGROV1 ovarian = tested on: IGROV1 ovarian
K-562 leukemia = tested on: K-562 leukemia
MDA-MB-231 breast = tested on: MDA-MB-231 breast
OVCAR-8 ovarian = tested on: OVCAR-8 ovarian
BT-549 breast = tested on: BT-549 breast
CAKI-1 renal = tested on: CAKI-1 renal
786-0 renal = tested on: 786-0 renal
NCI/ADR-RES ovarian = tested on: NCI/ADR-RES ovarian
SNB-19 CNS = tested on: SNB-19 CNS
LOX IMVI melanoma = tested on: LOX IMVI melanoma
RXF 393 renal = tested on: RXF 393 renal
NCI-H460 lung = tested on: NCI-H460 lung
NCI-H226 lung = tested on: NCI-H226 lung
MDA-MB-435 = tested on: MDA-MB-435
UACC-62 melanoma = tested on: UACC-62 melanoma
SF-295 CNS = tested on: SF-295 CNS
SK-OV-3 ovarian = tested on: SK-OV-3 ovarian
SK-MEL-28 melanoma = tested on: SK-MEL-28 melanoma
MOLT-4 leukemia = tested on: MOLT-4 leukemia
ACHN renal = tested on: ACHN renal
A549 NSCLC = tested on: A549 NSCLC
HOP-62 NSCLC = tested on: HOP-62 NSCLC
KM12 colon = tested on: KM12 colon
COLO 205 colon = tested on: COLO 205 colon
NCI-H23 lung = tested on: NCI-H23 lung
OVCAR-3 ovarian = tested on: OVCAR-3 ovarian
HT29 colon = tested on: HT29 colon
SK-MEL-2 melanoma = tested on: SK-MEL-2 melanoma
HCC-2998 colon = tested on: HCC-2998 colon
T-47D breast = tested on: T-47D breast
OVCAR-5 ovarian = tested on: OVCAR-5 ovarian
SNB-75 CNS = tested on: SNB-75 CNS
U251 CNS = tested on: U251 CNS
SF-268 CNS = tested on: SF-268 CNS
A498 renal = tested on: A498 renal
CCRF-CEM leukemia = tested on: CCRF-CEM leukemia
M14 melanoma = tested on: M14 melanoma
SW-620 colon = tested on: SW-620 colon
OVCAR-4 ovarian = tested on: OVCAR-4 ovarian
HOP-92 NSCLC = tested on: HOP-92 NSCLC
SK-MEL-5 melanoma = tested on: SK-MEL-5 melanoma
MALME-3M melanoma = tested on: MALME-3M melanoma
HCT-116 colon = tested on: HCT-116 colon
UACC-257 melanoma = tested on: UACC-257 melanoma
DU-145 prostate = tested on: DU-145 prostate
UO-31 renal = tested on: UO-31 renal
TK-10 renal = tested on: TK-10 renal
SF-539 CNS = tested on: SF-539 CNS
SN12C renal = tested on: SN12C renal
RPMI-8226 leukemia = tested on: RPMI-8226 leukemia
PC-3 prostate = tested on: PC-3 prostate
HCT-15 colon = tested on: HCT-15 colon

Molecule `O=C(C(Br)C(Br)c1ccccc1)C(Br)C(Br)c1ccccc1` (stereo not given) has a GI50 (HS 578T breast) of 2580 nM, a TGI (HS 578T breast) of 8400 nM and a GI50 (HL-60(TB) leukemia) of 694 nM. The TGI (HL-60(TB) leukemia) was 2750 nM, the GI50 (NCI-H522 lung) was 233 nM and the TGI (NCI-H522 lung) was 610 nM. It also gave a GI50 (IGROV1 ovarian) of 1610 nM, a TGI (IGROV1 ovarian) of 3410 nM and a GI50 (K-562 leukemia) of 302 nM. The TGI (K-562 leukemia) was 1380 nM, the GI50 (MDA-MB-231 breast) was 1310 nM and the TGI (MDA-MB-231 breast) was 2830 nM. The GI50 (OVCAR-8 ovarian) was 665 nM, the TGI (OVCAR-8 ovarian) was 2220 nM and the GI50 (BT-549 breast) was 1860 nM. The TGI (BT-549 breast) was 3390 nM, the GI50 (CAKI-1 renal) was 389 nM and the TGI (CAKI-1 renal) was 1370 nM. For the same molecule, the GI50 (786-0 renal) was 828 nM, the TGI (786-0 renal) was 2210 nM and the GI50 (NCI/ADR-RES ovarian) was 2950 nM. The TGI (NCI/ADR-RES ovarian) was 13300 nM, the GI50 (SNB-19 CNS) was 3490 nM and the TGI (SNB-19 CNS) was 14900 nM. For the same molecule, the GI50 (LOX IMVI melanoma) was 633 nM, the TGI (LOX IMVI melanoma) was 1880 nM and the GI50 (RXF 393 renal) was 527 nM. It also gave a TGI (RXF 393 renal) of 1770 nM, a GI50 (NCI-H460 lung) of 2270 nM and a TGI (NCI-H460 lung) of 5300 nM. The GI50 (NCI-H226 lung) was 1740 nM, the TGI (NCI-H226 lung) was 3710 nM and the GI50 (MDA-MB-435) was 1140 nM. It also gave a TGI (MDA-MB-435) of 3070 nM, a GI50 (UACC-62 melanoma) of 1320 nM and a TGI (UACC-62 melanoma) of 2690 nM. It also gave a GI50 (SF-295 CNS) of 4600 nM, a TGI (SF-295 CNS) of 13600 nM and a GI50 (SK-OV-3 ovarian) of 4670 nM. For the same molecule, the TGI (SK-OV-3 ovarian) was 19300 nM, the GI50 (SK-MEL-28 melanoma) was 1620 nM and the TGI (SK-MEL-28 melanoma) was 3360 nM. For the same molecule, the GI50 (MOLT-4 leukemia) was 348 nM, the TGI (MOLT-4 leukemia) was 1410 nM and the GI50 (ACHN renal) was 253 nM. It also gave a TGI (ACHN renal) of 630 nM, a GI50 (A549 NSCLC) of 2880 nM and a TGI (A549 NSCLC) of 10100 nM. The GI50 (HOP-62 NSCLC) was 3080 nM, the TGI (HOP-62 NSCLC) was 8890 nM and the GI50 (KM12 colon) was 2100 nM. For the same molecule, the TGI (KM12 colon) was 4270 nM, the GI50 (COLO 205 colon) was 1070 nM and the TGI (COLO 205 colon) was 2800 nM. The GI50 (NCI-H23 lung) was 2020 nM, the TGI (NCI-H23 lung) was 4830 nM and the GI50 (OVCAR-3 ovarian) was 511 nM. The TGI (OVCAR-3 ovarian) was 1670 nM, the GI50 (HT29 colon) was 346 nM and the TGI (HT29 colon) was 1200 nM. It also gave a GI50 (SK-MEL-2 melanoma) of 1870 nM, a TGI (SK-MEL-2 melanoma) of 3780 nM and a GI50 (HCC-2998 colon) of 1910 nM. For the same molecule, the TGI (HCC-2998 colon) was 3520 nM, the GI50 (T-47D breast) was 279 nM and the TGI (T-47D breast) was 1420 nM. It also gave a GI50 (OVCAR-5 ovarian) of 1570 nM, a TGI (OVCAR-5 ovarian) of 2950 nM and a GI50 (SNB-75 CNS) of 1770 nM. The TGI (SNB-75 CNS) was 6140 nM, the GI50 (U251 CNS) was 1890 nM and the TGI (U251 CNS) was 4530 nM. The GI50 (SF-268 CNS) was 2260 nM, the TGI (SF-268 CNS) was 5620 nM and the GI50 (A498 renal) was 1720 nM. The TGI (A498 renal) was 4120 nM, the GI50 (CCRF-CEM leukemia) was 236 nM and the TGI (CCRF-CEM leukemia) was 886 nM. It also gave a GI50 (M14 melanoma) of 1950 nM, a TGI (M14 melanoma) of 4410 nM and a GI50 (SW-620 colon) of 321 nM. It also gave a TGI (SW-620 colon) of 1090 nM, a GI50 (OVCAR-4 ovarian) of 1140 nM and a TGI (OVCAR-4 ovarian) of 2520 nM. It also gave a GI50 (HOP-92 NSCLC) of 1460 nM, a TGI (HOP-92 NSCLC) of 3010 nM and a GI50 (SK-MEL-5 melanoma) of 1690 nM. It also gave a TGI (SK-MEL-5 melanoma) of 3510 nM, a GI50 (MALME-3M melanoma) of 1400 nM and a TGI (MALME-3M melanoma) of 3400 nM. The GI50 (HCT-116 colon) was 198 nM, the TGI (HCT-116 colon) was 400 nM and the GI50 (UACC-257 melanoma) was 1370 nM. The TGI (UACC-257 melanoma) was 2920 nM, the GI50 (DU-145 prostate) was 1460 nM and the TGI (DU-145 prostate) was 2910 nM. For the same molecule, the GI50 (UO-31 renal) was 236 nM, the TGI (UO-31 renal) was 846 nM and the GI50 (TK-10 renal) was 311 nM. The TGI (TK-10 renal) was 1440 nM, the GI50 (SF-539 CNS) was 1660 nM and the TGI (SF-539 CNS) was 3190 nM. It also gave a GI50 (SN12C renal) of 1780 nM, a TGI (SN12C renal) of 3830 nM and a GI50 (RPMI-8226 leukemia) of 325 nM. It also gave a TGI (RPMI-8226 leukemia) of 1330 nM, a GI50 (PC-3 prostate) of 2030 nM and a TGI (PC-3 prostate) of 5400 nM. For the same molecule, the GI50 (HCT-15 colon) was 277 nM and the TGI (HCT-15 colon) was 849 nM.
